Key:
Assay type in all cases: cell-based
[1] = tested on: SK-OV-3 ovarian cancer cells; experiment: Cell viability, hexosaminidase assay, monotherapy; conditions: for EC50: read-out: EC50 dose of monotherapy
Protocol: (§1) In brief, HCT-116, MiaPaCa-2 and Panc-1 cells were thawed in high glucose DMEM (Sigma D5796) with 10% heat-inactivated Foetal Calf Serum (FCS) (PAA, A15-101)). Hep-G2 and SK-Hep1 cells were thawed in Minimum Essential Media (MEM) (Sigma M2279) with 1% non-essential amino acids (Sigma M7145), 2 mM Glutamine (Sigma G7513) and 10% FCS. SK-OV-3 cells were thawed in McCoy's 5A medium (Sigma, M8403) with 15% FCS. All cells were passaged by washing once in cation-free dPBS (Sigma, D1408), and incubated for 3 minutes with trypsin ([0.5 μg/ml]/EDTA [0.2 μg/ml] (Sigma, T4174) in dPBS). Passage was completed at 37° C., and cells were transferred to the appropriate media. Prior to seeding at defined cell density, cells were recovered in medium, centrifuged and resuspended for counting.
(§2) To prepare cells for viability assays, cells were transferred into 96 well tissue culture plates (Cultek), and resuspended in 100 µL at the following densities: 10,000 cells/well (Hep-G2 and MiaPaCa-2), 5000 cells/well (Panc-1 and SK-OV-3) or 3000 cells/well (HCT-116). Following 24 hours of incubation, media was removed and replaced with 100 µL media spiked with QTX125 and the test chemotherapeutic agents. Stock solutions for the agents used in this study are shown below in Table 1. Cells were incubated for a further 72 hours before cell viability was assessed using both ALAMAR® and hexosaminidase assays.
(§3) For the hexosaminidase assay, media containing QTX125 and the test chemotherapeutic agents was removed, and cells were washed once with PBS. 60 μL of substrate solution (containing: 7.5 mM p-nitrophenol-N-acetyl-beta-D-glucosamide [Sigma N-9376], 0.1 M sodium citrate, pH 5.0 and 0.25% Triton X-100) was added to each well and cells were incubated at 37° C. for at least 1 hour. Incubating cells in this manner causes the substrate solution to become bright yellow, at which point 90 μL of developer solution (containing 50 mM Glycine pH 10.4 and 5 mM EDTA) was added to each well. Absorbance at 410 nm was recorded using a plate reader.
(§4) A number of appropriate control samples were included. First, absorbance values measured in reagent ‘blank’ wells (containing cell culture medium and colorimetric agent only) were subtracted from ‘test’ sample-containing wells. ‘Blank’ absorbance values were routinely between 5 and 10% of the values recorded in test wells. Absorbance values recorded in test wells were then compared against wells containing (i) cells stimulated with QTX125 only; (ii) cells stimulated with sorafenib, gemcitabine or bortezomib only and/or (iii) unstimulated cells, as appropriate.
(§5) Control values were normalised to 100% and percentage (%) viability was calculated. Data were used to plot log dose-response curves using a sigmoid dose-response (variable slope) equation. EC50 values were obtained using Equation 1, where ‘X’ is the logarithmic concentration; ‘Y’ is the response output and it is assumed that Y starts at bottom of the graph and reaches the top with an overall sigmoid shape.
(§6) Prior to assessing the oncolytic efficacy of QTX125-containing combination therapies, the oncolytic effect of each test agent was assessed in isolation. Dose-response curves were produced by serial dilution (1:1), thereby allowing monotherapy EC50 values to be calculated.
(§7) Chemotherapeutic agents were added to wells at a starting concentration of 100 μM. However, it was quickly determined that it was not possible to use this range for all chemotherapeutic agents tested. An optimization study was therefore completed to identify suitable maximum (‘high’) doses for each agent and in each individual cell line.

[2] = tested on: Hep-G2 hepatic cancer cells; experiment: Cell viability, hexosaminidase assay, monotherapy; conditions: for percentage (%) cell viabilities: 72 hours of high-dose monotherapy (Table 2: QTX125 5, sorafenib 100, gemcitabine 100, bortezomib 1 μM); for EC50: HepG2, 72 h, read-out: EC50 dose of monotherapy
Protocol: as §1, §2, §3, §4, §5, §6, §7

[3] = tested on: MiaPaCa-2 pancreatic cancer cells; experiment: Cell viability, hexosaminidase assay, monotherapy; conditions: for percentage (%) cell viabilities: 72 hours of high-dose monotherapy (Table 2: QTX125 100, sorafenib 100, gemcitabine 100, bortezomib 1 μM); for EC50: MIA PaCa-2, 72 h, read-out: EC50 dose of monotherapy
Protocol: as §1, §2, §3, §4, §5, §6, §7

[4] = tested on: Panc-1 pancreatic cancer cells; experiment: Cell viability, hexosaminidase assay, monotherapy; conditions: for EC50: read-out: EC50 dose of monotherapy
Protocol: as §1, §2, §3, §4, §5, §6, §7

[5] = tested on: HCT-116 colonic cancer cells; experiment: Cell viability, hexosaminidase assay, monotherapy; conditions: for EC50: read-out: EC50 dose of monotherapy
Protocol: as §1, §2, §3, §4, §5, §6, §7

[6] = tested on: SK-OV-3 ovarian cancer cells; experiment: Cell viability, ALAMAR blue assay, monotherapy; conditions: for EC50: 72 h, read-out: EC50 dose of monotherapy
Protocol: as §1, §2
(§8) For the ALAMAR® blue assay, media containing QTX125 and the test chemotherapeutic agents was removed, and cells were stained using ALAMAR® blue (BioSource DAL 1100) for 4 hours at 37° C., following the manufacturer's instructions. Relative fluorescent intensity was measured using a Cytofluor® plate reader (Millipore) at 535/590 nm (Excitation/emission). This measure directly correlates with the number of viable cells present in each well.
as §4, §5, §6, §7

[7] = tested on: Hep-G2 hepatic cancer cells; experiment: Cell viability, ALAMAR blue assay, monotherapy; conditions: for percentage (%) cell viabilities: 72 hours of high-dose monotherapy (Table 2: QTX125 5, sorafenib 100, gemcitabine 100, bortezomib 1 μM); for EC50: HepG2, 72 h, read-out: EC50 dose of monotherapy
Protocol: as §1, §2, §8, §4, §5, §6, §7

[8] = tested on: MiaPaCa-2 pancreatic cancer cells; experiment: Cell viability, ALAMAR blue assay, monotherapy; conditions: for percentage (%) cell viabilities: 72 hours of high-dose monotherapy (Table 2: QTX125 100, sorafenib 100, gemcitabine 100, bortezomib 1 μM); for EC50: MIA PaCa-2, 72 h, 72 h, read-out: EC50 dose of monotherapy
Protocol: as §1, §2, §8, §4, §5, §6, §7

[9] = tested on: Panc-1 pancreatic cancer cells; experiment: Cell viability, ALAMAR blue assay, monotherapy; conditions: for EC50: 72 h, read-out: EC50 dose of monotherapy
Protocol: as §1, §2, §8, §4, §5, §6, §7

[10] = tested on: HCT-116 colonic cancer cells; experiment: Cell viability, ALAMAR blue assay, monotherapy; conditions: for EC50: 72 h, read-out: EC50 dose of monotherapy
Protocol: as §1, §2, §8, §4, §5, §6, §7

[11] = 72 hours of high-dose monotherapy (Table 2: QTX125 10, sorafenib 100, gemcitabine 10, bortezomib 1 μM)
[12] = 72 hours of high-dose monotherapy (Table 2: QTX125 100, sorafenib 100, gemcitabine 100, bortezomib 1 μM)
[13] = 72 hours of high-dose monotherapy (Table 2: QTX125 1, sorafenib 100, gemcitabine 10, bortezomib 1 μM)
[14] = high-dose monotherapy, 72 hours
[15] = Homo sapiens, 72 hours of high-dose monotherapy (Table 2: QTX125 10, sorafenib 100, gemcitabine 10, bortezomib 1 μM), read-out: percentage (%) cell viabilities
[16] = Homo sapiens, HepG2, 72 hours of high-dose monotherapy (Table 2: QTX125 5, sorafenib 100, gemcitabine 100, bortezomib 1 μM), read-out: percentage (%) cell viabilities
[17] = Homo sapiens, MIA PaCa-2, 72 hours of high-dose monotherapy (Table 2: QTX125 100, sorafenib 100, gemcitabine 100, bortezomib 1 μM), read-out: percentage (%) cell viabilities
[18] = Homo sapiens, 72 hours of high-dose monotherapy (Table 2: QTX125 100, sorafenib 100, gemcitabine 100, bortezomib 1 μM), read-out: percentage (%) cell viabilities
[19] = Homo sapiens, 72 hours of high-dose monotherapy (Table 2: QTX125 1, sorafenib 100, gemcitabine 10, bortezomib 1 μM), read-out: percentage (%) cell viabilities

| EC50 ([3]; Homo sapiens) [µM] | EC50 ([8]; Homo sapiens) [µM] | EC50 ([1]; Homo sapiens, 72 h) [µM] | EC50 ([2]; Homo sapiens) [µM] | EC50 ([4]; Homo sapiens, 72 h) [µM] | EC50 ([5]; Homo sapiens, 72 h) [µM] | EC50 ([6]; Homo sapiens) [µM] | EC50 ([7]; Homo sapiens) [µM] | EC50 ([9]; Homo sapiens) [µM] | EC50 ([10]; Homo sapiens) [µM] | SMILES | percentage (%) cell viabilities [1, 11] [%] | percentage (%) cell viabilities [2] [%] | percentage (%) cell viabilities [3] [%] | percentage (%) cell viabilities [4, 12] [%] | percentage (%) cell viabilities [5, 13] [%] | percentage (%) cell viabilities [6, 11] [%] | percentage (%) cell viabilities [7] [%] | percentage (%) cell viabilities [8] [%] | percentage (%) cell viabilities [9, 12] [%] | percentage (%) cell viabilities [10, 13] [%] | other results |
| --- | --- | --- | --- | --- | --- | --- | --- | --- | --- | --- | --- | --- | --- | --- | --- | --- | --- | --- | --- | --- | --- |
| 0.033 | 0.026 |  |  |  |  |  |  |  |  | Nc1ccn([C@@H]2O[C@H](CO)[C@@H](O)C2(F)F)c(=O)n1 [gemcitabine] | 50 | 54 | 47 | 62 | 20 | 38 | 24 | 24 | 8.5 | 1.9 | EC50 dose of monotherapy ([1]; 72 h): resistant; EC50 dose of monotherapy ([2]; 72 h): resistant; EC50 dose of monotherapy ([4]; 72 h): resistant; EC50 dose of monotherapy ([5]; 72 h): resistant; reduction of the population of viable cells [10, 14]: more than 98% |
| 0.0086 ± 0.0005 | 0.013 ± 0.0005 | 0.0068 ± 0.0004 | 0.016 ± 0.001 | 0.0093 ± 0.0008 | 0.0066 ± 0.0005 | 0.007 ± 0.001 | 0.016 ± 0.0007 | 0.0062 | 0.0079 ± 0.0004 | CC(C)C[C@H](NC(=O)[C@H](Cc1ccccc1)NC(=O)c1cnccn1)B(O)O [bortezomib] |  |  |  |  |  |  |  |  |  |  | viability at 1 µM [1, 15]: 9.3%; viability at 1 µM [2, 16]: 8.8%; viability at 1 µM [3, 17]: 4.1%; viability at 1 µM [4, 18]: 3%; reduction of the population of viable cells [4, 14]: 97%; viability at 1 µM [5, 19]: 4.9%; viability at 1 µM [6, 15]: 0%; viability at 1 µM [7, 16]: 0%; viability at 1 µM [8, 17]: 0%; viability at 1 µM [9, 18]: 0%; viability at 1 µM [10, 19]: 0% |
| 6.8 ± 0.9 |  | 12.7 ± 1.7 | 2.7 | 7.4 ± 1 | 3.6 ± 0.5 | 17 ± 2.8 | 0.62 ± 0.16 | 7.2 ± 0.8 | 4 ± 0.6 | CNC(=O)c1cc(Oc2ccc(NC(=O)Nc3ccc(Cl)c(C(F)(F)F)c3)cc2)ccn1 [sorafenib] | 2.3 | 1.8 | 4.7 | 4.4 | 2.4 | 0.0 | 0.0 | 0.0 | 0.0 | 0.0 | reduction of the population of viable cells [2, 14]: more than 98% |

— patent US20250281453A1, “COMBINATION THERAPIES COMPRISING QTX125” (QUIMATRYX, S.L., priority 2022, published 2025)
